ChEMBL document CHEMBL4196012 (Eur J Med Chem, 2018)
Values after ≈ are worked out from the molar mass of the structure shown.

Tests used:
Staphylococcus aureus [1] = experiment: Antibacterial activity against Staphylococcus aureus ATCC 6538p after 18 hrs by agar dilution method; format: functional
Staphylococcus aureus [2] = experiment: Antibacterial activity against methicillin-resistant Staphylococcus aureus isolate 1 after 18 hrs by agar dilution method; format: functional; details: isolate 1, 18 h
Staphylococcus aureus [3] = experiment: Antibacterial activity against methicillin-resistant Staphylococcus aureus isolate 2 after 18 hrs by agar dilution method; format: functional; details: isolate 2, 18 h
[4] = system: Staphylococcus epidermidis; experiment: Antibacterial activity against Staphylococcus epidermidis ATCC 12228 after 18 hrs by agar dilution method; format: functional; details: ATCC 12228, 18 h
Bacillus spizizenii = experiment: Antibacterial activity against Bacillus subtilis ATCC 6633 after 18 hrs by agar dilution method; format: functional; details: ATCC 6633, 18 h
Escherichia coli [5] = experiment: Antibacterial activity against Escherichia coli ATCC 8739 after 18 hrs by agar dilution method; format: functional; details: ATCC 8739, 18 h
Klebsiella pneumoniae [6] = experiment: Antibacterial activity against Klebsiella pneumoniae ATCC 10031 after 18 hrs by agar dilution method; format: functional; details: ATCC 10031, 18 h
Pseudomonas aeruginosa [7] = experiment: Antibacterial activity against Pseudomonas aeruginosa ATCC 9027 after 18 hrs by agar dilution method; format: functional; details: ATCC 9027, 18 h
Escherichia coli [8] = experiment: Potency index, ratio of ampicillin MIC to compound MIC for antibacterial activity against Escherichia coli ATCC 25922; format: functional
[9] = system: Yersinia pseudotuberculosis; experiment: Potency index, ratio of ampicillin MIC to compound MIC for antibacterial activity against Yersinia pseudotuberculosis ATCC 911; format: functional
Pseudomonas aeruginosa [10] = experiment: Potency index, ratio of ampicillin MIC to compound MIC for antibacterial activity against Pseudomonas aeruginosa ATCC 43288; format: functional
Enterococcus faecalis [11] = experiment: Potency index, ratio of ampicillin MIC to compound MIC for antibacterial activity against Enterococcus faecalis ATCC 29212; format: functional
Staphylococcus aureus [12] = experiment: Potency index, ratio of ampicillin MIC to compound MIC for antibacterial activity against Staphylococcus aureus ATCC 25923; format: functional
Bacillus cereus [13] = experiment: Potency index, ratio of ampicillin MIC to compound MIC for antibacterial activity against Bacillus cereus 709 Roma; format: functional
[14] = system: Mycolicibacterium smegmatis; experiment: Potency index, ratio of ampicillin MIC to compound MIC for antibacterial activity against Mycobacterium smegmatis ATCC 607; format: functional
Candida albicans = experiment: Potency index, ratio of ampicillin MIC to compound MIC for antifungal activity against Candida albicans ATCC 60193; format: functional
Saccharomyces cerevisiae = experiment: Potency index, ratio of ampicillin MIC to compound MIC for antifungal activity against Saccharomyces cerevisiae RSKK 251; format: functional
Staphylococcus aureus [15] = experiment: Antibacterial activity against methicillin-sensitive Staphylococcus aureus ATCC 25923 after 18 hrs by broth microdilution method; format: functional; details: ATCC 25923, 18 h
Staphylococcus aureus [16] = experiment: Antibacterial activity against methicillin-sensitive Staphylococcus aureus ATCC 6538 after 18 hrs by broth microdilution method; format: functional; details: ATCC 6538, 18 h
Staphylococcus aureus [17] = experiment: Antibacterial activity against methicillin-resistant Staphylococcus aureus MIKROBANK 14001 by broth microdilution method; format: functional
[18] = system: Staphylococcus epidermidis; experiment: Antibacterial activity against Staphylococcus epidermidis ATCC 12228 after 18 hrs by broth microdilution method; format: functional; details: ATCC 12228, 18 h
Bacillus subtilis [19] = experiment: Antibacterial activity against Bacillus subtilis ATCC 6638 after 18 hrs by broth microdilution method; format: functional; details: ATCC 6638, 18 h
Micrococcus luteus = experiment: Antibacterial activity against Micrococcus luteus ATCC 10240 after 18 hrs by broth microdilution method; format: functional; details: ATCC 10240, 18 h
Bacillus cereus [20] = experiment: Antibacterial activity against Bacillus cereus ATCC 10876 after 18 hrs by broth microdilution method; format: functional; details: ATCC 10876, 18 h
Escherichia coli [21] = experiment: Antibacterial activity against Escherichia coli ATCC 8739 by agar dilution method; format: functional
Klebsiella pneumoniae [22] = experiment: Antibacterial activity against Klebsiella pneumoniae ATCC 10031 by agar dilution method; format: functional
Pseudomonas aeruginosa [23] = experiment: Antibacterial activity against Pseudomonas aeruginosa ATCC 9027 by agar dilution method; format: functional
Bacillus subtilis [24] = experiment: Antibacterial activity against Bacillus subtilis PTCC 1023 by agar dilution method; format: functional
Staphylococcus aureus [25] = experiment: Antibacterial activity against Staphylococcus aureus ATCC 6538P by agar dilution method; format: functional
[26] = system: Staphylococcus epidermidis; experiment: Antibacterial activity against Staphylococcus epidermidis ATCC 12228 by agar dilution method; format: functional
Escherichia coli [27] = experiment: Antibacterial activity against Escherichia coli ATCC 25922 after 18 to 24 hrs by double microdilution method; format: functional
[28] = system: Yersinia pseudotuberculosis; experiment: Antibacterial activity against Yersinia pseudotuberculosis ATCC 911 after 18 to 24 hrs by double microdilution method; format: functional
Pseudomonas aeruginosa [29] = experiment: Antibacterial activity against Pseudomonas aeruginosa ATCC 43288 after 18 to 24 hrs by double microdilution method; format: functional
Enterococcus faecalis [30] = experiment: Antibacterial activity against Enterococcus faecalis ATCC 29212 after 18 to 24 hrs by double microdilution method; format: functional
Staphylococcus aureus [31] = experiment: Antibacterial activity against Staphylococcus aureus ATCC 25923 after 18 to 24 hrs by double microdilution method; format: functional
Bacillus cereus [32] = experiment: Antibacterial activity against Bacillus cereus 709 Roma after 18 to 24 hrs by double microdilution method; format: functional
[33] = system: Mycolicibacterium smegmatis; experiment: Antibacterial activity against Mycobacterium smegmatis ATCC 607 after 48 to 72 hrs by double microdilution method; format: functional
Escherichia coli [34] = experiment: Antibacterial activity against Escherichia coli ATCC 35218 after 18 to 24 hrs by double microdilution method; format: functional
Pseudomonas aeruginosa [35] = experiment: Antibacterial activity against Pseudomonas aeruginosa ATCC 10145 after 18 to 24 hrs by double microdilution method; format: functional
Staphylococcus aureus [36] = experiment: Antibacterial activity against quinolone-resistant Staphylococcus aureus after 16 to 20 hrs by NCCLS microdilution method; format: functional
Enterococcus faecium = experiment: Antibacterial activity against vancomycin and quinolone-resistant Enterococcus faecium after 16 to 20 hrs by NCCLS microdilution method; format: functional
Streptococcus pneumoniae = experiment: Antibacterial activity against quinolone-resistant Streptococcus pneumoniae after 16 to 20 hrs by NCCLS microdilution method; format: functional
Escherichia coli [37] = experiment: In vivo antibacterial activity against Escherichia coli NCTC 10419 infected in po dosed mouse administered at 1 and 4 hrs post infection; format: functional, organism-based
Escherichia coli [38] = experiment: microbe, parasite or virus in culture; details: NCTC 10419

O=C(CN1CCN(c2cc3c(cc2F)c(=O)c(C(=O)O)cn3C2CC2)CC1)c1cc2ccccc2oc1=O
MIC (Staphylococcus aureus [1]): 0.025 to 1.56 µg/mL (≈ 0.0483 to 3.01 µM) | MIC (Staphylococcus aureus [2]): 0.025 to 1.56 µg/mL (≈ 0.0483 to 3.01 µM) | MIC (Staphylococcus aureus [3]): 0.025 to 1.56 µg/mL (≈ 0.0483 to 3.01 µM) | MIC [4]: 0.025 to 1.56 µg/mL (≈ 0.0483 to 3.01 µM) | MIC (Bacillus spizizenii): 0.025 to 1.56 µg/mL (≈ 0.0483 to 3.01 µM) | MIC (Escherichia coli [5]): 0.025 to 1.56 µg/mL (≈ 0.0483 to 3.01 µM) | MIC (Klebsiella pneumoniae [6]): 0.025 to 1.56 µg/mL (≈ 0.0483 to 3.01 µM) | MIC (Pseudomonas aeruginosa [7]): 0.025 to 1.56 µg/mL (≈ 0.0483 to 3.01 µM)

O=C(O)c1cn(C2CC2)c2cc(N3CCN(Cn4nc(CN5CCSCC5)oc4=S)CC3)c(F)cc2c1=O
Ratio (Escherichia coli [8]): >41 | Ratio [9]: >41 | Ratio (Pseudomonas aeruginosa [10]): >41 | Ratio (Enterococcus faecalis [11]): >41 | Ratio (Staphylococcus aureus [12]): >41 | Ratio (Bacillus cereus [13]): >41 | Ratio [14]: >41 | Ratio (Candida albicans): >41 | Ratio (Saccharomyces cerevisiae): >41

O=C(O)c1cn(C2CC2)c2cc(N3CCN(Cn4nc(-c5cccc(O)c5)n(Cc5ccc(Br)cc5Cl)c4=S)CC3)c(F)cc2c1=O
MIC (Staphylococcus aureus [15]): 0.01 to 1.32 µM (≈ 7.4 to 977 ng/mL) | MIC (Staphylococcus aureus [16]): 0.01 to 1.32 µM (≈ 7.4 to 977 ng/mL) | MIC (Staphylococcus aureus [17]): 0.01 to 1.32 µM (≈ 7.4 to 977 ng/mL) | MIC [18]: 0.01 to 1.32 µM (≈ 7.4 to 977 ng/mL) | MIC (Bacillus subtilis [19]): 0.01 to 1.32 µM (≈ 7.4 to 977 ng/mL) | MIC (Micrococcus luteus): 0.01 to 1.32 µM (≈ 7.4 to 977 ng/mL) | MIC (Bacillus cereus [20]): 0.01 to 1.32 µM (≈ 7.4 to 977 ng/mL)

Cn1c([N+](=O)[O-])cnc1-c1nnc(N2CCN(c3cc4c(cc3F)c(=O)c(C(=O)O)cn4C3CC3)CC2)s1
MIC (Escherichia coli [21]): 2 to 64 µg/mL (≈ 3.7 to 118 µM) | MIC (Klebsiella pneumoniae [22]): 2 to 64 µg/mL (≈ 3.7 to 118 µM) | MIC (Pseudomonas aeruginosa [23]): 2 to 64 µg/mL (≈ 3.7 to 118 µM) | MIC (Bacillus subtilis [24]): 0.008 to 0.015 µg/mL (≈ 0.0148 to 0.0278 µM) | MIC (Staphylococcus aureus [25]): 0.008 to 0.015 µg/mL (≈ 0.0148 to 0.0278 µM) | MIC [26]: 0.008 to 0.015 µg/mL (≈ 0.0148 to 0.0278 µM)

CC1(C)S[C@@H]2[C@H](NC(=O)[C@H](N)c3ccccc3)C(=O)N2[C@H]1C(=O)O [AMPICILLIN]
MIC (Escherichia coli [27]): 10 to 128 µg/mL (≈ 28.6 to 366 µM) | MIC [28]: 10 to 128 µg/mL (≈ 28.6 to 366 µM) | MIC (Pseudomonas aeruginosa [29]): 10 to 128 µg/mL (≈ 28.6 to 366 µM) | MIC (Enterococcus faecalis [30]): 10 to 128 µg/mL (≈ 28.6 to 366 µM) | MIC (Staphylococcus aureus [31]): 10 to 128 µg/mL (≈ 28.6 to 366 µM) | MIC (Bacillus cereus [32]): 10 to 128 µg/mL (≈ 28.6 to 366 µM) | MIC [33]: 10 to 128 µg/mL (≈ 28.6 to 366 µM) | MIC (Escherichia coli [34]): 3.9 to 250 µg/mL (≈ 11.2 to 715 µM) | MIC (Pseudomonas aeruginosa [35]): 3.9 to 250 µg/mL (≈ 11.2 to 715 µM)

O=C(O)c1cn(C2CC2)c2cc(N3CCNCC3)c(F)cc2c1=O [CIPROFLOXACIN]
MIC (Bacillus subtilis [24]): 0.015 to 0.5 µg/mL (≈ 0.0453 to 1.51 µM) | MIC (Staphylococcus aureus [25]): 0.015 to 0.5 µg/mL (≈ 0.0453 to 1.51 µM) | MIC [26]: 0.015 to 0.5 µg/mL (≈ 0.0453 to 1.51 µM) | MIC (Staphylococcus aureus [36]): ≥ 32 µg/mL | MIC (Enterococcus faecium): ≥ 32 µg/mL | MIC (Streptococcus pneumoniae): ≥ 32 µg/mL | EC50 (Escherichia coli [37]): 1.25 mg/kg | MIC (Escherichia coli [38]): 0.0011 µM (≈ 0.364 ng/mL)
